Common to all, as to assay type: cell-based
Assay [1] has as its system spores of ATCC BBA1870 strain. The assay can be described thus: Inhibition of germination of C. difficile spores (MIC), strain ATCC BBA1870. The note with it: Clostridioides difficile, ATCCBBA1870STRAIN, 1 h; strain 1870; sodium taurocholate as germinant, BHIS medium, 37° C., OD580 for 60 min; read-out: MIC (minimum concentration that completely inhibits spore germination). The essentials: (§1)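 Germination was followed as the drop in OD580 over 60 min at 37° C in BHIS after adding sodium taurocholate to spores premixed with compound. Spores were first heat-activated (65° C, 30 min) and washed free of self-germinating spores. The inhibition rate was calculated against germinant and non-germinant controls.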

Assay [2] has as its system spores of ATCC 630 strain. The assay can be described thus: Inhibition of germination of C. difficile spores (MIC), strain ATCC 630. The note with it: Clostridioides difficile, ATCC630, 1 h; strain 630; sodium taurocholate as germinant, BHIS medium, 37° C., OD580 for 60 min; read-out: MIC (minimum concentration that completely inhibits spore germination). The essentials: as §1

In assay [3] the test system is spores of ATCC 43255 strain. Nature of the assay: Inhibition of germination of C. difficile spores (MIC), strain ATCC 43255. The note with it: Clostridioides difficile, ATCC43255, 1 h; strain 43255; sodium taurocholate as germinant, BHIS medium, 37° C., OD580 for 60 min; read-out: MIC (minimum concentration that completely inhibits spore germination). The essentials:
as §1

Each structure is given as a SMILES string. Values after ≈ are worked out from the molar mass of the structure shown. Some results are limits rather than exact numbers.

For `CC(C)[C@H](NC(=O)C[C@@H](C)[C@H]1CC[C@H]2[C@@H]3[C@H](O)C[C@@H]4CC(=O)CC[C@]4(C)[C@H]3CC[C@]12C)c1cccs1` [Compound I-135], the MIC in assay [1], in assay [2] and in assay [3] was more than 256 µM throughout.
As for `CC(C)[C@@H](NC(=O)C[C@@H](C)[C@H]1CC[C@H]2[C@@H]3[C@H](O)C[C@@H]4CC(=O)CC[C@]4(C)[C@H]3CC[C@]12C)c1cccs1` [Compound I-136], the MIC in assay [1], in assay [2] and in assay [3] was 1 µM (≈ 0.514 µg/mL) in each case.
Consider `CC[C@@H](NC(=O)C[C@@H](C)[C@H]1CC[C@H]2[C@@H]3[C@H](O)C[C@@H]4C[C@H](O)CC[C@]4(C)[C@H]3CC[C@]12C)c1ccc(Cl)s1` [Compound I-137], for which the MIC in assay [1], in assay [2] and in assay [3] was 1 µM (≈ 0.536 µg/mL) each time.
Take `CC[C@@H](NC(=O)C[C@@H](C)[C@H]1CC[C@H]2[C@@H]3[C@H](O)C[C@@H]4C[C@H](O)CC[C@]4(C)[C@H]3CC[C@]12C)c1ccc(Br)s1` [Compound I-138]: the MIC in assay [1], in assay [2] and in assay [3] was 1 µM (≈ 0.581 µg/mL) each time.
With `CC(C)[C@@H](NC(=O)C[C@@H](C)[C@H]1CC[C@H]2[C@@H]3[C@H](O)C[C@@H]4C[C@H](O)CC[C@]4(C)[C@H]3CC[C@]12C)c1ccc(Cl)s1` [Compound I-139], the MIC in assay [1] is 2 µM (≈ 1.1 µg/mL); in assay [2], 1 µM (≈ 0.55 µg/mL); in assay [3] it was 1 µM (≈ 0.55 µg/mL).
In the case of `CC(C)[C@@H](NC(=O)C[C@@H](C)[C@H]1CC[C@H]2[C@@H]3[C@H](O)C[C@@H]4C[C@H](O)CC[C@]4(C)[C@H]3CC[C@]12C)c1ccc(Br)s1` [Compound I-140], the MIC in assay [1], in assay [2] and in assay [3] was 1 µM (≈ 0.595 µg/mL) throughout.
As to `CC[C@@H](NC(=O)C[C@@H](C)[C@H]1CC[C@H]2[C@@H]3[C@@H](O)C[C@@H]4C[C@H](O)CC[C@]4(C)[C@H]3CC[C@]12C)c1ccc(Cl)s1` [Compound I-141], the MIC in assay [1], in assay [2] and in assay [3] was 32 µM (≈ 17.2 µg/mL) each time.
Take `CC(C)[C@@H](NC(=O)C[C@@H](C)[C@H]1CC[C@H]2[C@@H]3[C@@H](O)C[C@@H]4C[C@H](O)CC[C@]4(C)[C@H]3CC[C@]12C)c1ccc(Br)s1` [Compound I-142]: the MIC in assay [1], in assay [2] and in assay [3] was 32 µM (≈ 19 µg/mL) in each case.
In the case of `CC[C@@H](NC(=O)C[C@@H](C)[C@H]1CC[C@H]2[C@@H]3[C@H](O)C[C@@H]4C[C@@H](O)CC[C@]4(C)[C@H]3CC[C@]12C)c1ccc(Br)s1` [Compound I-143], the MIC stood at 8 µM (≈ 4.65 µg/mL) in assay [1], 4 µM (≈ 2.32 µg/mL) in assay [2] and 4 µM (≈ 2.32 µg/mL) in assay [3].
Turning to `CC(C)[C@@H](NC(=O)C[C@@H](C)[C@H]1CC[C@H]2[C@@H]3[C@H](O)C[C@@H]4C[C@@H](O)CC[C@]4(C)[C@H]3CC[C@]12C)c1ccc(Cl)s1` [Compound I-144], the MIC in assay [1] stood at 4 µM (≈ 2.2 µg/mL); in assay [2], 2 µM (≈ 1.1 µg/mL); in assay [3], 2 µM (≈ 1.1 µg/mL).
In the case of `CC[C@@H](NC(=O)C[C@@H](C)[C@H]1CC[C@H]2[C@@H]3[C@H](O)C[C@@H]4C[C@H](O)CC[C@]4(C)[C@H]3C[C@H](O)[C@]12C)c1ccc(Cl)s1` [Compound I-145], the MIC is 32 µM (≈ 17.7 µg/mL) in assay [1], 16 µM (≈ 8.84 µg/mL) in assay [2] and 32 µM (≈ 17.7 µg/mL) in assay [3].
Take `CC(C)[C@@H](NC(=O)C[C@@H](C)[C@H]1CC[C@H]2[C@@H]3[C@H](O)C[C@@H]4C[C@H](O)CC[C@]4(C)[C@H]3C[C@H](O)[C@]12C)c1ccc(Cl)s1` [Compound I-146]: the MIC in assay [1], in assay [2] and in assay [3] was 16 µM (≈ 9.06 µg/mL) each time.
For the compound `CC[C@@H](NC(=O)C[C@@H](C)[C@H]1CC[C@H]2[C@@H]3CC[C@@H]4C[C@H](O)CC[C@]4(C)[C@H]3CC[C@]12C)c1ccc(Br)s1` [Compound I-147], the MIC in assay [1] amounted to 32 µM (≈ 18.1 µg/mL); in assay [2], 16 µM (≈ 9.03 µg/mL); in assay [3], 16 µM (≈ 9.03 µg/mL).
In the case of `CC(C)[C@@H](NC(=O)C[C@@H](C)[C@H]1CC[C@H]2[C@@H]3CC[C@@H]4C[C@H](O)CC[C@]4(C)[C@H]3CC[C@]12C)c1ccc(Br)s1` [Compound I-148], the MIC in assay [1], in assay [2] and in assay [3] was 16 µM (≈ 9.26 µg/mL) throughout.
In the case of `CC[C@@H](NC(=O)C[C@@H](C)[C@H]1CC[C@H]2[C@@H]3C(=O)C[C@@H]4C[C@H](O)CC[C@]4(C)[C@H]3CC[C@]12C)c1ccc(Cl)s1` [Compound I-149], the MIC in assay [1], in assay [2] and in assay [3] was 2 µM (≈ 1.07 µg/mL) in each case.
Regarding `CC(C)[C@@H](NC(=O)C[C@@H](C)[C@H]1CC[C@H]2[C@@H]3C(=O)C[C@@H]4C[C@H](O)CC[C@]4(C)[C@H]3CC[C@]12C)c1ccc(Cl)s1` [Compound I-150], the MIC in assay [1] was 2 µM (≈ 1.1 µg/mL); in assay [2], 1 µM (≈ 0.548 µg/mL); in assay [3], 2 µM (≈ 1.1 µg/mL).
`CC[C@@H](NC(=O)C[C@@H](C)[C@H]1CC[C@H]2[C@@H]3C(=O)CC4=CC(=O)CC[C@]4(C)[C@H]3CC[C@]12C)c1ccc(Br)s1` [Compound I-151]: the MIC in assay [1] was determined as 0.5 µM (≈ 0.287 µg/mL); in assay [2], 0.5 µM (≈ 0.287 µg/mL); in assay [3], 1 µM (≈ 0.575 µg/mL).
With `CC(C)[C@@H](NC(=O)C[C@@H](C)[C@H]1CC[C@H]2[C@@H]3C(=O)CC4=CC(=O)CC[C@]4(C)[C@H]3CC[C@]12C)c1ccc(Br)s1` [Compound I-152], the figures for the MIC in assay [1], in assay [2] and in assay [3] were 1 µM (≈ 0.589 µg/mL), 0.5 µM (≈ 0.294 µg/mL) and 1 µM (≈ 0.589 µg/mL), respectively.
In the case of `CC[C@@H](NC(=O)C[C@@H](C)[C@H]1CC[C@H]2[C@@H]3C(=O)CC4=CC(=O)C=C[C@]4(C)[C@H]3CC[C@]12C)c1ccc(Cl)s1` [Compound I-153], the MIC in assay [1], in assay [2] and in assay [3] was 0.5 µM (≈ 0.264 µg/mL) in each case.
Regarding `CC(C)[C@@H](NC(=O)C[C@@H](C)[C@H]1CC[C@H]2[C@@H]3C(=O)CC4=CC(=O)C=C[C@]4(C)[C@H]3CC[C@]12C)c1ccc(Cl)s1` [Compound I-154], the MIC in assay [1] was found to be 1 µM (≈ 0.542 µg/mL); in assay [2], 0.5 µM (≈ 0.271 µg/mL); in assay [3], 0.5 µM (≈ 0.271 µg/mL).
In the case of `CC[C@@H](NC(=O)C[C@@H](C)[C@H]1CC[C@H]2[C@@H]3[C@H](O)CC4=CC(=O)CC[C@]4(C)[C@H]3CC[C@]12C)c1ccc(Br)s1` [Compound I-155-2], the MIC in assay [1], in assay [2] and in assay [3] was 0.25 µM (≈ 0.144 µg/mL) in each case.
On to `CC(C)[C@@H](NC(=O)C[C@@H](C)[C@H]1CC[C@H]2[C@@H]3[C@H](O)CC4=CC(=O)CC[C@]4(C)[C@H]3CC[C@]12C)c1ccc(Br)s1` [Compound I-156-2], for which the values for the MIC in assay [1], in assay [2] and in assay [3] were 0.25 µM (≈ 0.148 µg/mL), 0.25 µM (≈ 0.148 µg/mL) and 0.5 µM (≈ 0.295 µg/mL), respectively.

Values taken from patent US20230135729A1, “COMPOUND WITH ANTI-SPORE ACTIVITY AND PHARMACEUTICAL COMPOSITION THEREOF” (priority 2020, published 2023).
